Reference: patent US7479478B2, “Human parathyroid hormone modifications, preparation and use” (The General Hospital Corporation, priority 1998, dated 2009)
No end group written: not given here.

Columns and labels:
membrane-bound PKCs = settings: osteoblast-like ROS 17/2 cells; Neugebauer et al. 1995; cited from earlier work
human PTH-1 receptors = target: T1, human PTH-1 receptors (Homo sapiens, UniProt Q03431); assay: Radioligand competition binding with 125I-[Nle8,21,Tyr34]rat PTH-(1-34) in HKRK B7 cells; settings: read-out: apparent IC50 for binding
T1 construct: expressed in transfected cells
T1 sequence (Q03431 27-593): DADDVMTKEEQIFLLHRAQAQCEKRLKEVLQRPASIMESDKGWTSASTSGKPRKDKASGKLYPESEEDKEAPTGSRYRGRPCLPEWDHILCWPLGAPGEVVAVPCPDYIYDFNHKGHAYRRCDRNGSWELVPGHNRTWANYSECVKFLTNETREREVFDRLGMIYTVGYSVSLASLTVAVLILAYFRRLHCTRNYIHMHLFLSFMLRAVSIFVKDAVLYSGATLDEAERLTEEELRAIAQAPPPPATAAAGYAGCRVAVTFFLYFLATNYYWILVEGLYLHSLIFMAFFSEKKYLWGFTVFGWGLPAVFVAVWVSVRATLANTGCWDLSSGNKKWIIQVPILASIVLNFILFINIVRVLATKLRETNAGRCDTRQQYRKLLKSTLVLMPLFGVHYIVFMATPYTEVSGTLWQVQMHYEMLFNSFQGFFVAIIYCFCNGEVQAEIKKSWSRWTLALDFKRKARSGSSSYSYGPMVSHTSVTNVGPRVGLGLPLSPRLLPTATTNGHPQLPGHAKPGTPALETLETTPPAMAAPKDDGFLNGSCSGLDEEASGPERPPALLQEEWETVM
Method: HKRK B7 or EW5 cells (32), subclones of LLC-PKI renal epithelial cells that stably express human or rat PTH-1 receptors (950,000 and 320,000 receptors/cell, respectively), were maintained under 5% CO2 in air in Dulbecco's modified essential medium containing 7% fetal bovine serum (FBS) and 1% penicillin/streptomycin (GIBCO-BRL, Grand Island, N.Y.). HEK-293 and COS-7 cells were cultured similarly, except that 10% FBS was used in the medium. Cells were seeded into 24-well plates two days before assay at a density of 2-2.5×10^5 cells/well (HKRK B7 or EW 5 cells) or 6×10^5 cells/well (in 6-well plates) (HEK-293 cells). In experiments involving HEK-293 cells, DNA transfections were performed 24 hr after plating and inositol radiolabel was added 24 hr thereafter (see below). COS-7 cell transfections were performed as previously described (Gardella, T. J., et al., Endocrinology 132(5):2024-2030 (1993)) Radioligand competition binding assays were performed at 2-8° C. for 6 hr using ^125I-[Nle^8,21,[…]]rat PTH-(1-34) (100,000 cpm/well) in the presence or absence of non-radioactive hPTH-(1-34) analogs. Cell layers were washed three times before solubilization for determination of cell-associated radioactivity.

rat PTH-1 receptors [1] = target: T2, rat PTH-1 receptors (Rattus norvegicus, UniProt P25961); assay: PLC activation in EW5 cells; format: cell-based; settings: compared with human PTH-1 receptor
T2 construct: expressed in transfected cells
T2 sequence (P25961 27-591): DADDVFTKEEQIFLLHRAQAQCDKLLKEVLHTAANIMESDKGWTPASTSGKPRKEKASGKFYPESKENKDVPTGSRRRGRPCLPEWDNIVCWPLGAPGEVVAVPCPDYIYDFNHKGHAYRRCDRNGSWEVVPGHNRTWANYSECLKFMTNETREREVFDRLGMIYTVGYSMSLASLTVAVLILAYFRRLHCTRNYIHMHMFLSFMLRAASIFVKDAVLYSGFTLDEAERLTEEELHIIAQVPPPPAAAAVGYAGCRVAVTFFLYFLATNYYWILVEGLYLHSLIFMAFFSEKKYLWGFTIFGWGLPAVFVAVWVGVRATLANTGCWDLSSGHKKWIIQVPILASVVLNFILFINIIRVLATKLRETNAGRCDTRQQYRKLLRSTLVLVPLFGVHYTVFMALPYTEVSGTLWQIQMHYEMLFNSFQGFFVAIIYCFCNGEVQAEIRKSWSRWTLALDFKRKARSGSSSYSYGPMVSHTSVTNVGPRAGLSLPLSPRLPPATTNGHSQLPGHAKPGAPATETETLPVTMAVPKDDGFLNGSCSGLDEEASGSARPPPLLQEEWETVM
Method: (§1) HKRK B7 or EW5 cells (32), subclones of LLC-PKI renal epithelial cells that stably express human or rat PTH-1 receptors (950,000 and 320,000 receptors/cell, respectively), were maintained under 5% CO2 in air in Dulbecco's modified essential medium containing 7% fetal bovine serum (FBS) and 1% penicillin/streptomycin (GIBCO-BRL, Grand Island, N.Y.). HEK-293 and COS-7 cells were cultured similarly, except that 10% FBS was used in the medium. Cells were seeded into 24-well plates two days before assay at a density of 2-2.5×10^5 cells/well (HKRK B7 or EW 5 cells) or 6×10^5 cells/well (in 6-well plates) (HEK-293 cells). In experiments involving HEK-293 cells, DNA transfections were performed 24 hr after plating and inositol radiolabel was added 24 hr thereafter (see below). COS-7 cell transfections were performed as previously described (Gardella, T. J., et al., Endocrinology 132(5):2024-2030 (1993))
PLC was activated by PTH agonists in the presence of 30 mM LiCl at 37° C. for 30 min after 16 hr of labeling with [^3H]myo-inositol (3 uCi/ml) in serum-free medium containing 0.1% bovine serum albumin. The reactions were stopped by rapid aspiration and addition of cold 5% TCA. Water-soluble radiolabeled inositol trisphosphate (IP3) was isolated after ether extraction by ion-exchange chromatography (Guo, J., et al., Endocrinology 136(9):3884-3891 (1995)). […]

rat PTH-1 receptors [2] = target: T2, rat PTH-1 receptors; assay: Radioligand binding in EW5 cells; settings: compared with human PTH-1 receptor
Method: as §1
Radioligand competition binding assays were performed at 2-8° C. for 6 hr using ^125I-[Nle^8,21, Tyr^34]rat PTH-(1-34) (100,000 cpm/well) in the presence or absence of non-radioactive hPTH-(1-34) analogs. Cell layers were washed three times before solubilization for determination of cell-associated radioactivity. […]

IC50 (human PTH-1 receptors): 1000 nM | signaling (PLC) via rat PTH-1 receptors, result in words (rat PTH-1 receptors [1]): more severely impaired | binding affinity for rat PTH-1 receptor, result in words (rat PTH-1 receptors [2]): comparable
Substance: SVSEIQLMHNLGKHLNSMERVEWLRKKL-NH2 [hPTH-(1-28)]
stimulation of activity of membrane-bound PKCs (membrane-bound PKCs): incapable of stimulating
